Experimental data published in patent publication EP2377876A1, “Use of proteins and peptides of the TGF-BETA superfamily for purification and therapeutic methods” (Wyeth LLC, priority 2006, dated 2011).
No end group written: not given here.

Experiments:
BMP-12 = experiment: Binding of BMP-12 to peptide-coupled affinity resins in 96 well filter plate
Procedure: The coupled resins, plus an unconjugated resin for use as a control, were suspended in 16% ethanol, 150 mM NaCl, and 20 mM Tris buffer at pH 7.5 at a 25% v/v ratio (e.g., 25% ethanol, 75% Tris buffer). A Tecan liquid-handling robot was employed to aliquot 200 µL of each slurry into one of eight rows of a 96 well polystyrene filter plate (0.45 µm hydrophilic filters, Whatman catalog number 770-1806). Spinning at 1200 g for 3 min removed the liquid phase, leaving 50 µL of wet resin on the filters. The resins were then equilibrated with the loading buffers listed in Table 6 (K is a coefficient characterizing the strength of protein binding to a particular resin in a particular buffer). […] The resins were loaded by transferring 150 µL from the load plate to the filter plate and then incubating 20 min on a shaking platform to facilitate binding. The filter plate was spun down and the filtrate collected in a 96 well UV plate. The protein concentration in the filtrate, or flow-through, was calculated as (A280-A320)/1.3. The filter plate was then washed with 150 µL of 100 mM acetic acid, followed by 150 µL of 4M guanidine-HCl and 50 mM sodium acetate at pH 4.0. The protein concentration was measured in the new filtrate as described above. […] However, for peptides 750 and 751, the binding was strong in 25 mM MES at pH 6 but weak in 50 mM acetic acid with 0.1 M NaCl at pH 3.0, which can allow an efficient binding-elution process without the need for chaotrops or organic reagents. Flow-through and acetic acid elution samples from column 4 of the plate (loaded with MES pH 6) were analyzed on a gel (Figure 14).

BMP-3 = experiment: Purification of BMP-3 on immobilized finger 1 peptide column, comparison of ligands; assay type: binding; conditions: compared with the BMP-2 mutant peptide
Source text: ([…] […]) was used to purify BMP-3 as in Example 1. […] Less of the propeptide fragment eluted than in Example 6.

[1] = 50 mM acetic acid with 0.1 M NaCl at pH 3.0

Substance | binding of BMP 12 by coupled resin (BMP-12; loading buffers 1-5) | binding of BMP 12 by coupled resin (BMP-12; 25 mM MES at pH 6) | binding of BMP 12 by coupled resin (BMP-12; [1]) | further results
Ac-ELGWDDWIIAPLDYEAYHSEGLK [Peptide 749] | high affinity |  |  | 
Ac-LYVDFSDVGWNDWIVAPPGYHAFYSHGEK [Peptide 747] | high affinity |  |  | 
Ac-RDLGWQDWIIAPEGYAAFYSDGEK [Peptide 748] | high affinity |  |  | 
Ac-SDVGWNDWIVAPPGYHAFYCHGEK [Peptide 750] |  | strong | weak | 
Ac-SDVGWNDWIVAPPGYHAFYSHGEK [Peptide 751] |  | strong | weak | 
KELGWDDWIIAPLDYEAYHCEGLC [BMP12 Fing1 WT] |  |  |  | effectiveness of immobilized ligand (BMP-3): less effective than the BMP-2 mutant
